Test results reported in ChEMBL document CHEMBL5518215, “Unlocking Antibacterial Potential: Key-Site-Based Regulation of Antibacterial Spectrum of Peptides” (J Med Chem, 2024).

Experiments:
[1] = system: Salmonella typhimurium; assay: Antimicrobial activity against Salmonella typhimurium C7731 assessed as bacterial killing measured after 16 hrs incubation; assay type: functional, Salmonella enterica subsp. enterica serovar Typhimurium; settings: Salmonella enterica
[2] = system: Salmonella typhimurium; assay: Antimicrobial activity against Salmonella typhimurium C7731 assessed as absence bacterial growth measured after 18 to 24 hrs incubation by NCCLS method; assay type: functional, Salmonella enterica subsp. enterica serovar Typhimurium; settings: Salmonella enterica, time 18-24 hrs
[3] = Hemolytic activity in human RBC at effective concentration at 128 uM measured after 1 hr by microplate reader relative to control; assay type: toxicity, cell-based, Erythrocyte; settings: human red blood cells (erythrocytes), read-out: Activity
[4] = system: Enterococcus faecalis; assay: Antimicrobial activity against Enterococcus faecalis 29212 assessed as bacterial killing measured after 16 hrs incubation; assay type: functional
[5] = system: Staphylococcus aureus; assay: Antimicrobial activity against Staphylococcus aureus 29213 assessed as absence bacterial growth measured after 18 to 24 hrs incubation by NCCLS m; assay type: functional; settings: time 18-24 hrs
[6] = system: Enterococcus faecalis; assay: Antimicrobial activity against Enterococcus faecalis 29212 assessed as absence bacterial growth measured after 18 to 24 hrs incubation by NCCLS method; assay type: functional; settings: time 18-24 hrs
[7] = system: Escherichia coli; assay: Antimicrobial activity against Escherichia coli 25922 assessed as absence bacterial growth measured after 18 to 24 hrs incubation in presence of ZnCl2 by NCCLS method; assay type: functional; settings: time 18-24 hrs
[8] = system: Listeria monocytogenes; assay: Antimicrobial activity against Listeria monocytogenes 1.10753 assessed as bacterial killing measured after 16 hrs incubation; assay type: functional
[9] = system: Escherichia coli; assay: Antimicrobial activity against Escherichia coli 25922 assessed as absence bacterial growth measured after 18 to 24 hrs incubation in presence of NaCl by NCCLS method; assay type: functional; settings: time 18-24 hrs
[10] = system: Listeria monocytogenes; assay: Antimicrobial activity against Listeria monocytogenes 1.10753 assessed as absence bacterial growth measured after 18 to 24 hrs incubation by NCCLS method; assay type: functional; settings: time 18-24 hrs
[11] = system: Escherichia coli; assay: Antimicrobial activity against Escherichia coli 25922 assessed as absence bacterial growth measured after 18 to 24 hrs incubation in presence of 50% serum by NCCLS method; assay type: functional; settings: time 18-24 hrs
[12] = system: Escherichia coli; assay: Antimicrobial activity against Escherichia coli 25922 assessed as absence bacterial growth measured after 18 to 24 hrs incubation in presence of KCl by NCCLS method; assay type: functional; settings: time 18-24 hrs
[13] = Antimicrobial activity against Salmonella pullorum C7913 assessed as absence bacterial growth measured after 18 to 24 hrs incubation by NCCLS method; assay type: functional, Salmonella enterica subsp. enterica serovar Pullorum; settings: Salmonella enterica, time 18-24 hrs
[14] = system: Acinetobacter baumannii; assay: Antimicrobial activity against Acinetobacter baumannii 1.6769 assessed as absence bacterial growth measured after 18 to 24 hrs incubation by NCCLS method; assay type: functional; settings: time 18-24 hrs
[15] = system: Salmonella typhimurium; assay: Antimicrobial activity against Salmonella typhimurium 14028 assessed as absence bacterial growth measured after 18 to 24 hrs incubation by NCCLS method; assay type: functional, Salmonella enterica subsp. enterica serovar Typhimurium; settings: Salmonella enterica, time 18-24 hrs
[16] = Cytotoxicity against porcine IPEC-J2 cells assessed as cell survival rate measured after 8 hrs by MTT assay; assay type: toxicity, cell-based, Sus scrofa; settings: pig
[17] = system: Staphylococcus epidermidis; assay: Antimicrobial activity against Staphylococcus epidermidis 12228 assessed as bacterial killing measured after 16 hrs incubation; assay type: functional
[18] = system: Escherichia coli; assay: Antimicrobial activity against Escherichia coli K88 assessed as absence bacterial growth measured after 18 to 24 hrs incubation by NCCLS method; assay type: functional; settings: time 18-24 hrs
[19] = system: Acinetobacter baumannii; assay: Antimicrobial activity against Acinetobacter baumannii 1.6769 assessed as bacterial killing measured after 16 hrs incubation; assay type: functional
[20] = Antimicrobial activity against Salmonella pullorum C7913 assessed as bacterial killing measured after 16 hrs incubation; assay type: functional, Salmonella enterica subsp. enterica serovar Pullorum; settings: Salmonella enterica
[21] = system: Pseudomonas aeruginosa; assay: Antimicrobial activity against Pseudomonas aeruginosa 27853 assessed as absence bacterial growth measured after 18 to 24 hrs incubation by NCCLS method; assay type: functional; settings: time 18-24 hrs
[22] = system: Staphylococcus aureus; assay: Antimicrobial activity against Methicillin-resistant Staphylococcus aureus 43300 assessed as bacterial killing measured after 16 hrs incubation; assay type: functional
[23] = system: Escherichia coli; assay: Antimicrobial activity against Escherichia coli 25922 assessed as absence bacterial growth measured after 18 to 24 hrs incubation in presence of NH4Cl by NCCLS method; assay type: functional; settings: time 18-24 hrs
[24] = system: Pseudomonas aeruginosa; assay: Antimicrobial activity against Pseudomonas aeruginosa 27853 assessed as bacterial killing measured after 16 hrs incubation; assay type: functional
[25] = Cytotoxicity against mouse RAW264.7 cells assessed as cell survival rate measured after 8 hrs by MTT assay; assay type: toxicity, cell-based
[26] = system: Staphylococcus aureus; assay: Antimicrobial activity against Staphylococcus aureus 29213 assessed as absence bacterial growth measured after 18 to 24 hrs incubation by NCCLS method; assay type: functional; settings: time 18-24 hrs
[27] = system: Escherichia coli; assay: Antimicrobial activity against Escherichia coli 25922 assessed as absence bacterial growth measured after 18 to 24 hrs incubation in presence of FeCl3 by NCCLS method; assay type: functional; settings: time 18-24 hrs
[28] = system: Staphylococcus aureus; assay: Antimicrobial activity against Methicillin-resistant Staphylococcus aureus 43300 assessed as absence bacterial growth measured after 18 to 24 hrs incubation by NCCLS method; assay type: functional; settings: time 18-24 hrs
[29] = system: Escherichia coli; assay: Antimicrobial activity against Escherichia coli 25922 assessed as absence bacterial growth measured after 18 to 24 hrs incubation in presence of 12.5% serum by NCCLS method; assay type: functional; settings: time 18-24 hrs
[30] = system: Staphylococcus aureus; assay: Antimicrobial activity against Staphylococcus aureus 25923 assessed as bacterial killing measured after 16 hrs incubation; assay type: functional
[31] = system: Escherichia coli; assay: Antimicrobial activity against Escherichia coli 25922 assessed as absence bacterial growth measured after 18 to 24 hrs incubation in presence of MgCl2 by NCCLS method; assay type: functional; settings: time 18-24 hrs
[32] = system: Salmonella typhimurium; assay: Antimicrobial activity against Salmonella typhimurium 14028 assessed as bacterial killing measured after 16 hrs incubation; assay type: functional, Salmonella enterica subsp. enterica serovar Typhimurium; settings: Salmonella enterica
[33] = system: Escherichia coli; assay: Antimicrobial activity against Escherichia coli 25922 assessed as absence bacterial growth measured after 18 to 24 hrs incubation in presence of 25% serum by NCCLS method; assay type: functional; settings: time 18-24 hrs
[34] = system: Erythrocyte; assay: Hemolytic activity in human RBC at effective concentration measured after 1 hr by microplate reader analysis; assay type: toxicity, cell-based
[35] = system: Bacillus cereus; assay: Antimicrobial activity against Bacillus cereus 1.932 assessed as absence bacterial growth measured after 18 to 24 hrs incubation by NCCLS method; assay type: functional; settings: time 18-24 hrs
[36] = system: Bacillus cereus; assay: Antimicrobial activity against Bacillus cereus 1.932 assessed as bacterial killing measured after 16 hrs incubation; assay type: functional
[37] = system: Staphylococcus epidermidis; assay: Antimicrobial activity against Staphylococcus epidermidis 12228 assessed as absence bacterial growth measured after 18 to 24 hrs incubation by NCCLS method; assay type: functional; settings: time 18-24 hrs
[38] = system: Escherichia coli; assay: Antimicrobial activity against Escherichia coli 25922 assessed as bacterial killing measured after 16 hrs incubation; assay type: functional
[39] = system: Staphylococcus aureus; assay: Antimicrobial activity against Staphylococcus aureus 29213 assessed as bacterial killing measured after 16 hrs incubation; assay type: functional
[40] = system: Escherichia coli; assay: Antimicrobial activity against Escherichia coli K88 assessed as bacterial killing measured after 16 hrs incubation; assay type: functional
[41] = system: Escherichia coli; assay: Antimicrobial activity against Escherichia coli 25922 assessed as absence bacterial growth measured after 18 to 24 hrs incubation by NCCLS method; assay type: functional; settings: time 18-24 hrs
[42] = Cytotoxicity against human HEK-293T cells assessed as cell survival rate measured after 8 hrs by MTT assay; assay type: toxicity, cell-based

H-FKLWLKGGKLWLKGGKLWLKG-NH2
128 µM: HC10 [34]
1 µM: MIC [18] | MBC [40]
8 µM: MIC [7] | MIC [12] | MIC [14] | MBC [19] | MIC [23] | MBC [38]
> 64 µM: IC50 at 8 h [25] | IC50 at 8 h [42]
16 µM: MIC [28] | MIC [29] | MBC [32]
20 µM: IC50 at 8 h [16]
4 µM: MIC [15] | MIC [41]
< 10%: hemolysis at 1 h, 128 µM [3]
2 µM: MIC [13] | MBC [20] | MIC [27]
32 µM: MIC [21] | MBC [24] | MBC [39]
> 32 µM: MBC [1] | MIC [2] | MBC [4] | MIC [5] | MIC [6] | MBC [8] | MIC [9] | MIC [10] | MIC [11] | MBC [17] | MBC [22] | MIC [26] | MBC [30] | MIC [31] | MIC [33] | MIC [35] | MBC [36] | MIC [37]

H-MKLWLKGGKLWLKGGKLWLKG-NH2
8 µM: MIC [2] | MIC [14]
> 32 µM: MBC [4] | MIC [5] | MIC [6] | MBC [8] | MIC [10] | MIC [11] | MBC [17] | MIC [21] | MBC [22] | MBC [24] | MIC [26] | MIC [28] | MBC [30] | MIC [31] | MIC [35] | MBC [36] | MIC [37] | MBC [39]
2 µM: MIC [13] | MBC [20] | MBC [40]
41 µM: IC50 at 8 h [16]
32 µM: MBC [1] | MIC [29] | MIC [33]
4 µM: MIC [7] | MIC [12] | MIC [23] | MIC [27] | MBC [38] | MIC [41]
< 10%: hemolysis at 1 h, 128 µM [3]
> 64 µM: IC50 at 8 h [25] | IC50 at 8 h [42]
16 µM: MIC [9] | MIC [15] | MBC [19] | MBC [32]
1 µM: MIC [18]
128 µM: HC10 [34]
